Data from PubChem BioAssay AID248 (DTP/NCI, 2004).
Inconclusive results and toxic doses are left out. Cut-off read from the data, not from the text of the source: active = T/C of 150% or more; inactive = T/C below 125%.

Tested on: L1210 leukemia ip in BDF1 mice, survival T/C
Assay: NCI In Vivo Anticancer Drug Screen. Data for tumor model L1210 Leukemia (intraperitoneal) in B6D2F1 (BDF1) mice
Conditions: endpoint: mean survival time, higher = longer survival
Procedure, shortened: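 Each compound was tested against a transplantable tumor grown in mice. The endpoint was survival, with treated animals benchmarked against vehicle controls as a simple ratio.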

[1] = dose: 50.0 mg/kg/injection, schedule: Q01DX009 (ip), vehicle: saline with Tween-80
[2] = dose: 100.0 mg/kg/injection, schedule: Q01DX009 (ip), vehicle: saline with Tween-80
[3] = dose: 200.0 mg/kg/injection, schedule: Q01DX009 (ip), vehicle: saline with Tween-80
[4] = dose: 100.0 mg/kg/injection, schedule: Q04DX003 (ip), vehicle: Klucel (hydroxypropylcellulose) (HPC)
[5] = dose: 200.0 mg/kg/injection, schedule: Q04DX003 (ip), vehicle: Klucel (hydroxypropylcellulose) (HPC)
[6] = dose: 400.0 mg/kg/injection, schedule: Q04DX003 (ip), vehicle: Klucel (hydroxypropylcellulose) (HPC)

Measured: T/C

CCC1(c2ccccc2)CCN(C)C1 (stereo not drawn)
inactive: dose: 75.0 mg/kg/injection, schedule: Q01DX001 (ip), vehicle: carboxymethylcellulose (CMC) 93 % of control

COC(=O)c1ccccc1NC(=O)C(Br)C(Br)C(=O)O (stereo not drawn)
inactive: [1] 101 % of control | [2] 96 % of control | [3] 117 % of control

Cc1cccc(C)c1NC(=O)Nc1cccc2ccccc12
inactive: dose: 100.0 mg/kg/injection, schedule: Q01DX009 (ip), vehicle: gum acacia 93 % of control | dose: 100.0 mg/kg/injection, schedule: Q04DX003 (ip), vehicle: gum acacia 98 % of control | dose: 200.0 mg/kg/injection, schedule: Q04DX003 (ip), vehicle: gum acacia 95 % of control | dose: 400.0 mg/kg/injection, schedule: Q01DX009 (ip), vehicle: gum acacia 94 % of control | dose: 400.0 mg/kg/injection, schedule: Q04DX003 (ip), vehicle: gum acacia 91 % of control

O=C1CCCCc2nn(c3ccccc23)C(=O)CCCCc2nn1c1ccccc21
inactive: dose: 25.0 mg/kg/injection, schedule: Q04DX002 (ip), vehicle: Klucel (hydroxypropylcellulose) (HPC) 90 % of control | dose: 50.0 mg/kg/injection, schedule: Q04DX002 (ip), vehicle: Klucel (hydroxypropylcellulose) (HPC) 97 % of control | dose: 100.0 mg/kg/injection, schedule: Q04DX002 (ip), vehicle: Klucel (hydroxypropylcellulose) (HPC) 93 % of control

ClB(Cl)c1ccccc1
inactive: dose: 100.0 mg/kg/injection, schedule: Q01DX001 (ip), vehicle: saline 92 % of control | dose: 200.0 mg/kg/injection, schedule: Q01DX001 (ip), vehicle: saline 92 % of control | dose: 400.0 mg/kg/injection, schedule: Q01DX001 (ip), vehicle: saline 101 % of control

CCN1CCC(CNc2cc(C)nc(/N=C(\N)Nc3cc(Cl)cc(Cl)c3)n2)C1 (stereo not drawn)
inactive: dose: 12.5 mg/kg/injection, schedule: Q04DX003 (ip), vehicle: Klucel (hydroxypropylcellulose) (HPC) 102 % of control | dose: 25.0 mg/kg/injection, schedule: Q04DX003 (ip), vehicle: Klucel (hydroxypropylcellulose) (HPC) 105 % of control | dose: 50.0 mg/kg/injection, schedule: Q04DX003 (ip), vehicle: Klucel (hydroxypropylcellulose) (HPC) 105 % of control

NS(=O)(=O)c1ccc(Cl)c(Cl)c1
inactive: dose: 100.0 mg/kg/injection, schedule: Q04DX003 (ip), vehicle: saline with Tween-80 97 % of control | dose: 200.0 mg/kg/injection, schedule: Q04DX003 (ip), vehicle: saline with Tween-80 103 % of control | dose: 400.0 mg/kg/injection, schedule: Q04DX003 (ip), vehicle: saline with Tween-80 93 % of control

CC1CCCC[N-]1.CC1CCCC[N-]1.[Cl][Pt+2][Cl] (stereo not drawn)
inactive: dose: 100.0 mg/kg/injection, schedule: Q01DX009 (ip), vehicle: Klucel (hydroxypropylcellulose) (HPC) 97 % of control | [4] 98 % of control | dose: 200.0 mg/kg/injection, schedule: Q01DX009 (ip), vehicle: Klucel (hydroxypropylcellulose) (HPC) 102 % of control | [5] 96 % of control | [6] 102 % of control

O=C1C(Cl)=C(Nc2ccccc2)C(=O)c2ccccc21
inactive: [4] 101 % of control | [5] 101 % of control | [6] 102 % of control

CCC1CCC(N)CC1 (stereo not drawn)
inactive: dose: 75.0 mg/kg/injection, schedule: Q01DX001 (ip), vehicle: saline 100 % of control

CC1(C)C=CS1(=O)=O
inactive: [1] 98 % of control | [2] 102 % of control | [3] 95 % of control
